From patent publication US11000033B2, “Ketone or oxime compound, and herbicide” (NISSAN CHEMICAL CORPORATION, priority 2014, dated 2021)

Columns and labels:
Assay type in all cases: in vivo
[1] = system: Echinochloa oryzacola Vasing.; experiment: Test Example 2: herbicidal activity, application during weed generation in submerged conditions (symbol A); conditions: Table 23; application herbicide amount 320 g/ha; grade 0-5 by criteria of Test Example 1
Method in brief: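 Weeds emerging under flooded conditions were treated with compound formulated as an emulsion and diluted with water to the intended herbicide amount, poured onto the surface of 4 cm standing water. Seeds had been co-sown in alluvial soil; plants grew at 25° C. to 30° C. and were assessed after 3 weeks.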

[2] = system: Echinochloa crus-galli var. crus-galli; experiment: Test Example 3: herbicidal effect by foliage application, Wagner pot (symbol H); conditions: application herbicide amount 320 g/ha
Method in brief: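 Alluvial soil was flooded to a depth of 0.1–0.5 cm, seeded with the weeds and rice, and kept in a greenhouse at 25–30 °C. After 14 days of growth, the foliage received a small-sprayer application of emulsion diluted to the intended rate; injury was rated at 3 weeks.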

[3] = system: directly sowed rice plant; experiment: Test Example 3: effect on crop by foliage application, Wagner pot (symbol b); conditions: application herbicide amount 320 g/ha
Method in brief: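 Plants are raised from seed in flooded paddy conditions: water stands 0.1–0.5 cm over alluvial soil, and the pot is kept in a greenhouse at 25–30 °C. Species sown are barnyardgrass (E. crus-galli var. crus-galli), Leptochloa chinensis, Cyperus difformis and rice.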

[4] = system: Setaria viridis; experiment: Test Example 4: herbicidal effect by soil treatment (symbol G); conditions: application herbicide amount 320 g/ha
Method in brief: (§1)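 Seeds were sown in sterilized diluvial soil, covered with about 1.5 cm of soil, and the soil surface was sprayed with a water-diluted emulsion of the compound at a predetermined rate. Plants grew in a greenhouse at 25° C. to 30° C.; effects were scored visually 3 weeks after application.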

[5] = system: Lolium multiflorum Lam.; experiment: Test Example 4: herbicidal effect by soil treatment (symbol K); conditions: application herbicide amount 320 g/ha
Method in brief: as §1

[6] = system: corn; experiment: Test Example 4: effect on crop by soil treatment (symbol c); conditions: application herbicide amount 320 g/ha
Method in brief: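 Grown at 25° C. to 30° C. in a greenhouse, the crops came from seed sown spot-wise in sterilized diluvial soil under roughly 1.5 cm of covering soil.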

[7] = system: soybean; experiment: Test Example 4: effect on crop by soil treatment (symbol d); conditions: application herbicide amount 320 g/ha
Method in brief: (§2)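 Steps: fill box with sterilized diluvial soil; sow seed spot-like; cover with ~1.5 cm soil; grow in greenhouse (25° C. to 30° C.).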

[8] = system: rapeseed; experiment: Test Example 4: effect on crop by soil treatment (symbol g); conditions: application herbicide amount 320 g/ha
Method in brief: as §2

[9] = system: Avena fatua; experiment: Test Example 5: herbicidal effect by foliage application, plastic box (symbol I); conditions: 320 g/ha, 3 weeks after application
Method in brief: (§3)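 Effect is rated 3 weeks after a foliar spray of water-diluted emulsion concentrate at a predetermined herbicide amount. Plants had grown 14 days in a 25° C. to 30° C. greenhouse from seed in sterilized diluvial soil.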

[10] = system: Stellaria media; experiment: Test Example 5: herbicidal effect by foliage application, plastic box (symbol P); conditions: 320 g/ha, 3 weeks after application
Method in brief: as §3

[11] = system: wheat; experiment: Test Example 5: effect on crop by foliage application, plastic box (symbol e); conditions: 320 g/ha, 3 weeks after application
Method in brief: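 Crop seed is sown alongside grass and broadleaf weed species in spots in sterilized diluvial soil, then covered to a depth of about 1.5 cm. Plants grow in a greenhouse kept at 25° C. to 30° C.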

## CCc1cc(C#C[Si](C)(C)C)cc(C)c1C1=C(O)CC(CC(C)=NOC)C1=O (mixture of isomers) [6-008]
[1]
  Herbicidal effect grade, A: Echinochloa oryzacola Vasing.: 5 (Herbicidal ratio of 90% or more (almost completely withered))
[2]
  herbicidal effect on H (Echinochloa crus-galli var. crus-galli), grade 0-5: 5 (Herbicidal ratio of 90% or more (almost completely withered))
[3]
  effect on crop b (directly sowed rice plant), grade 0-5: 5 (Herbicidal ratio of 90% or more (almost completely withered))
[4]
  G: Setaria viridis, herbicidal effect grade: 5 (Herbicidal ratio of 90% or more (almost completely withered))
[5]
  K: Lolium multiflorum Lam., herbicidal effect grade: 5 (Herbicidal ratio of 90% or more (almost completely withered))
[6]
  c: corn, effect on crop grade: 3 (Herbicidal ratio of 40% or higher and lower than 70%)
[7]
  d: soybean, effect on crop grade: 0 (Herbicidal ratio of 5% or lower (almost no effect))
[8]
  g: rapeseed, effect on crop grade: 0 (Herbicidal ratio of 5% or lower (almost no effect))
[9]
  I: Avena fatua, herbicidal effect grade: 0 (Herbicidal ratio of 5% or lower (almost no effect))
[10]
  P: Stellaria media, herbicidal effect grade: 0 (Herbicidal ratio of 5% or lower (almost no effect))
[11]
  e: wheat, effect on crop grade: 4 (Herbicidal ratio of 70% or higher and lower than 90%)

## CON=C(C)CC1CC(O)=C(c2c(C)cc(C#CC3CC3)cc2C)C1=O (mixture of isomers) [6-010]
[1]
  Herbicidal effect grade, A: Echinochloa oryzacola Vasing.: 5 (Herbicidal ratio of 90% or more (almost completely withered))
[2]
  herbicidal effect on H (Echinochloa crus-galli var. crus-galli), grade 0-5: 5 (Herbicidal ratio of 90% or more (almost completely withered))
[3]
  effect on crop b (directly sowed rice plant), grade 0-5: 5 (Herbicidal ratio of 90% or more (almost completely withered))
[4]
  G: Setaria viridis, herbicidal effect grade: 5 (Herbicidal ratio of 90% or more (almost completely withered))
[5]
  K: Lolium multiflorum Lam., herbicidal effect grade: 5 (Herbicidal ratio of 90% or more (almost completely withered))
[6]
  c: corn, effect on crop grade: 4 (Herbicidal ratio of 70% or higher and lower than 90%)
[7]
  d: soybean, effect on crop grade: 0 (Herbicidal ratio of 5% or lower (almost no effect))
[8]
  g: rapeseed, effect on crop grade: 0 (Herbicidal ratio of 5% or lower (almost no effect))
[9]
  I: Avena fatua, herbicidal effect grade: 3 (Herbicidal ratio of 40% or higher and lower than 70%)
[10]
  P: Stellaria media, herbicidal effect grade: 0 (Herbicidal ratio of 5% or lower (almost no effect))
[11]
  e: wheat, effect on crop grade: 4 (Herbicidal ratio of 70% or higher and lower than 90%)

## CON=C(C)CC1CC(O)=C(c2c(C)cc(-c3ccc(C(F)(F)F)cc3)cc2C)C1=O (mixture of isomers) [6-016]
[1]
  Herbicidal effect grade, A: Echinochloa oryzacola Vasing.: 3 (Herbicidal ratio of 40% or higher and lower than 70%)
[2]
  herbicidal effect on H (Echinochloa crus-galli var. crus-galli), grade 0-5: 5 (Herbicidal ratio of 90% or more (almost completely withered))
[3]
  effect on crop b (directly sowed rice plant), grade 0-5: 5 (Herbicidal ratio of 90% or more (almost completely withered))
[4]
  G: Setaria viridis, herbicidal effect grade: 5 (Herbicidal ratio of 90% or more (almost completely withered))
[5]
  K: Lolium multiflorum Lam., herbicidal effect grade: 0 (Herbicidal ratio of 5% or lower (almost no effect))
[6]
  c: corn, effect on crop grade: 0 (Herbicidal ratio of 5% or lower (almost no effect))
[7]
  d: soybean, effect on crop grade: 0 (Herbicidal ratio of 5% or lower (almost no effect))
[8]
  g: rapeseed, effect on crop grade: 0 (Herbicidal ratio of 5% or lower (almost no effect))
[9]
  I: Avena fatua, herbicidal effect grade: 4 (Herbicidal ratio of 70% or higher and lower than 90%)
[10]
  P: Stellaria media, herbicidal effect grade: 0 (Herbicidal ratio of 5% or lower (almost no effect))
[11]
  e: wheat, effect on crop grade: 0 (Herbicidal ratio of 5% or lower (almost no effect))

## CON=C(C)CC1CC(O)=C(c2c(C)cc(-c3ccc(OC)cc3)cc2C)C1=O (mixture of isomers) [6-017]
[1]
  Herbicidal effect grade, A: Echinochloa oryzacola Vasing.: 4 (Herbicidal ratio of 70% or higher and lower than 90%)
[2]
  herbicidal effect on H (Echinochloa crus-galli var. crus-galli), grade 0-5: 5 (Herbicidal ratio of 90% or more (almost completely withered))
[3]
  effect on crop b (directly sowed rice plant), grade 0-5: 5 (Herbicidal ratio of 90% or more (almost completely withered))
[4]
  G: Setaria viridis, herbicidal effect grade: 5 (Herbicidal ratio of 90% or more (almost completely withered))
[5]
  K: Lolium multiflorum Lam., herbicidal effect grade: 4 (Herbicidal ratio of 70% or higher and lower than 90%)
[6]
  c: corn, effect on crop grade: 0 (Herbicidal ratio of 5% or lower (almost no effect))
[7]
  d: soybean, effect on crop grade: 0 (Herbicidal ratio of 5% or lower (almost no effect))
[8]
  g: rapeseed, effect on crop grade: 0 (Herbicidal ratio of 5% or lower (almost no effect))
[9]
  I: Avena fatua, herbicidal effect grade: 5 (Herbicidal ratio of 90% or more (almost completely withered))
[10]
  P: Stellaria media, herbicidal effect grade: 1 (Herbicidal ratio of 5% or higher and lower than 20%)
[11]
  e: wheat, effect on crop grade: 1 (Herbicidal ratio of 5% or higher and lower than 20%)

## CON=C(C)CC1CC(O)=C(c2c(C)cc(-c3ccc(C)cc3)cc2C)C1=O (mixture of isomers) [6-018]
[1]
  Herbicidal effect grade, A: Echinochloa oryzacola Vasing.: 5 (Herbicidal ratio of 90% or more (almost completely withered))
[2]
  herbicidal effect on H (Echinochloa crus-galli var. crus-galli), grade 0-5: 5 (Herbicidal ratio of 90% or more (almost completely withered))
[3]
  effect on crop b (directly sowed rice plant), grade 0-5: 5 (Herbicidal ratio of 90% or more (almost completely withered))
[4]
  G: Setaria viridis, herbicidal effect grade: 5 (Herbicidal ratio of 90% or more (almost completely withered))
[5]
  K: Lolium multiflorum Lam., herbicidal effect grade: 5 (Herbicidal ratio of 90% or more (almost completely withered))
[6]
  c: corn, effect on crop grade: 0 (Herbicidal ratio of 5% or lower (almost no effect))
[7]
  d: soybean, effect on crop grade: 0 (Herbicidal ratio of 5% or lower (almost no effect))
[8]
  g: rapeseed, effect on crop grade: 0 (Herbicidal ratio of 5% or lower (almost no effect))
[9]
  I: Avena fatua, herbicidal effect grade: 4 (Herbicidal ratio of 70% or higher and lower than 90%)
[10]
  P: Stellaria media, herbicidal effect grade: 3 (Herbicidal ratio of 40% or higher and lower than 70%)
[11]
  e: wheat, effect on crop grade: 2 (Herbicidal ratio of 20% or higher and lower than 40%)

## CON=C(C)CC1CC(O)=C(c2c(C)cc(C#CCO)cc2C)C1=O (mixture of isomers) [6-025]
[1]
  Herbicidal effect grade, A: Echinochloa oryzacola Vasing.: 2 (Herbicidal ratio of 20% or higher and lower than 40%)
[2]
  herbicidal effect on H (Echinochloa crus-galli var. crus-galli), grade 0-5: 5 (Herbicidal ratio of 90% or more (almost completely withered))
[3]
  effect on crop b (directly sowed rice plant), grade 0-5: 5 (Herbicidal ratio of 90% or more (almost completely withered))
[4]
  G: Setaria viridis, herbicidal effect grade: 4 (Herbicidal ratio of 70% or higher and lower than 90%)
[5]
  K: Lolium multiflorum Lam., herbicidal effect grade: 5 (Herbicidal ratio of 90% or more (almost completely withered))
[6]
  c: corn, effect on crop grade: 0 (Herbicidal ratio of 5% or lower (almost no effect))
[7]
  d: soybean, effect on crop grade: 0 (Herbicidal ratio of 5% or lower (almost no effect))
[8]
  g: rapeseed, effect on crop grade: 0 (Herbicidal ratio of 5% or lower (almost no effect))
[9]
  I: Avena fatua, herbicidal effect grade: 5 (Herbicidal ratio of 90% or more (almost completely withered))
[10]
  P: Stellaria media, herbicidal effect grade: 0 (Herbicidal ratio of 5% or lower (almost no effect))
[11]
  e: wheat, effect on crop grade: 1 (Herbicidal ratio of 5% or higher and lower than 20%)

## CON=C(C)CC1CC(O)=C(c2c(C)cc(-c3ccc(Cl)cc3)cc2C)C1=O (mixture of isomers) [6-029]
[1]
  Herbicidal effect grade, A: Echinochloa oryzacola Vasing.: 5 (Herbicidal ratio of 90% or more (almost completely withered))
[2]
  herbicidal effect on H (Echinochloa crus-galli var. crus-galli), grade 0-5: 5 (Herbicidal ratio of 90% or more (almost completely withered))
[3]
  effect on crop b (directly sowed rice plant), grade 0-5: 5 (Herbicidal ratio of 90% or more (almost completely withered))
[4]
  G: Setaria viridis, herbicidal effect grade: 5 (Herbicidal ratio of 90% or more (almost completely withered))
[5]
  K: Lolium multiflorum Lam., herbicidal effect grade: 5 (Herbicidal ratio of 90% or more (almost completely withered))
[6]
  c: corn, effect on crop grade: 2 (Herbicidal ratio of 20% or higher and lower than 40%)
[7]
  d: soybean, effect on crop grade: 0 (Herbicidal ratio of 5% or lower (almost no effect))
[8]
  g: rapeseed, effect on crop grade: 2 (Herbicidal ratio of 20% or higher and lower than 40%)
[9]
  I: Avena fatua, herbicidal effect grade: 5 (Herbicidal ratio of 90% or more (almost completely withered))
[10]
  P: Stellaria media, herbicidal effect grade: 3 (Herbicidal ratio of 40% or higher and lower than 70%)
[11]
  e: wheat, effect on crop grade: 5 (Herbicidal ratio of 90% or more (almost completely withered))
